Laboratory results taken from patent publication US20260248780A1, “PHARMACEUTICAL COMPOSITIONS” (Birdie Biopharmaceuticals, Inc., priority 2017, published 2026).
Structures can show the parent of a compound that is named as a salt. Marks after values point to notes of the source that are not given here.

What was measured:
Assay type in all cases: physicochemical
[1] = Kinetic solubility in water and bio-relevant media (SGF, FaSSIF, FeSSIF) at RT; conditions: for solubility kinetic: water and bio-relevant media (SGF, FaSSIF, FeSSIF), water/bio-relevant media
Protocol: After being centrifuged and separated using 0.45 μm Nylon filter, filtrates were collected for HPLC and pH test, and wet cakes for XRPD characterization. If clear solutions were obtained after 24 hours, accurate concentration and purity were measured for the solutions.

[2] = Inter-conversion of crystal forms via storage and heating experiments
[3] = Solubility estimation in solvents at RT; conditions: organic solvent or mixture, thermodynamic from solid
Protocol: Solubility of Type A was estimated in nine solvents at RT. […] Approximately 2 mg solids were added into a 3-mL glass vial.

[4] = water and bio-relevant media (SGF, FaSSIF, FeSSIF) at RT

Row | SMILES | S: Solubility ([1]; FaSSIF, RT, 1 hr) | S: Solubility ([1]; FaSSIF, RT, 2 hrs) | S: Solubility ([1]; FaSSIF, RT, 4 hrs) | S: Solubility ([1]; FaSSIF, RT, 24 hrs) | S: Solubility ([1]; FeSSIF, RT, 1 hr) | S: Solubility ([1]; SGF, RT, 1 hr) | S: Solubility ([1]; SGF, RT, 2 hrs) | S: Solubility ([1]; SGF, RT, 4 hrs) | S: Solubility ([1]; SGF, RT, 24 hrs) | S: Solubility ([1]; Water, RT, 1 hr) | S: Solubility ([1]; Water, RT, 2 hrs) | S: Solubility ([1]; Water, RT, 4 hrs) | S: Solubility ([1]; Water, RT, 24 hrs) | solubility compared with freebase Type A [1, 4] | other results
1 | CCOCc1nc2c(N)nc3ccccc3c2n1CC(C)(C)O [Sulfate Type A, resiquimod] | C (C: Clear) | C (C: Clear) | C (C: Clear) | 4.0* mg/mL | C (C: Clear) | C (C: Clear) | C (C: Clear) | C (C: Clear) | 3.9* mg/mL | C (C: Clear) | C (C: Clear) | C (C: Clear) | 4.1* mg/mL | improved or comparable solubility | 
2 | CCOCc1nc2c(N)nc3ccccc3c2n1CC(C)(C)O [Type F, resiquimod] |  |  |  |  |  |  |  |  |  |  |  |  |  |  | form conversion on storage ([2]; storage at ambient conditions for 2 days): converted to Type A
3 | CCOCc1nc2c(N)nc3ccccc3c2n1CC(C)(C)O [Phosphate Type A, resiquimod] | C (C: Clear) | C (C: Clear) | C (C: Clear) | 4.3* mg/mL |  | C (C: Clear) | C (C: Clear) | C (C: Clear) | 4.0* mg/mL | C (C: Clear) | C (C: Clear) | C (C: Clear) | 3.9* mg/mL | improved or comparable solubility | 
4 | CCOCc1nc2c(N)nc3ccccc3c2n1CC(C)(C)O [Maleate Type A, resiquimod] | 2.2 mg/mL | 2.3 mg/mL | 2.4 mg/mL | 2.3 mg/mL |  | 1.4 mg/mL | 1.5 mg/mL | 1.6 mg/mL | 1.5 mg/mL | 0.93 mg/mL | 0.98 mg/mL | 1.1 mg/mL | 0.97 mg/mL |  | FC: Solid form change ([1]; FaSSIF, RT, 1 hr): No; FC: Solid form change ([1]; FaSSIF, RT, 2 hrs): No; FC: Solid form change ([1]; FaSSIF, RT, 4 hrs): No; FC: Solid form change ([1]; FaSSIF, RT, 24 hrs): No; FC: Solid form change ([1]; FeSSIF, RT, 1 hr): No; FC: Solid form change ([1]; FeSSIF, RT, 2 hrs): No; FC: Solid form change ([1]; FeSSIF, RT, 4 hrs): No; FC: Solid form change ([1]; FeSSIF, RT, 24 hrs): No; solubility compared with freebase Type A ([1]; SGF, FaSSIF, and FeSSIF at RT): decreased solubility; FC: Solid form change ([1]; SGF, RT, 1 hr): No; FC: Solid form change ([1]; SGF, RT, 2 hrs): No; FC: Solid form change ([1]; SGF, RT, 4 hrs): No; FC: Solid form change ([1]; SGF, RT, 24 hrs): No; FC: Solid form change ([1]; Water, RT, 1 hr): No; FC: Solid form change ([1]; Water, RT, 2 hrs): No; FC: Solid form change ([1]; Water, RT, 4 hrs): No; FC: Solid form change ([1]; Water, RT, 24 hrs): No; Kinetic Solubility at RT ([1]; bio-relevant media): ~1.5 (bio-relevant mg/mL; form change after kinetic solubility evaluation ([1]; remaining solids after suspended 24 hours, XRPD): no form change; Kinetic Solubility at RT ([1]; water): ~1.0 (water) mg/mL
5 | CCOCc1nc2c(N)nc3ccccc3c2n1CC(C)(C)O [Malate Type A, resiquimod] | C (C: Clear) | C (C: Clear) | C (C: Clear) | 3.7* mg/mL |  | C (C: Clear) | C (C: Clear) | C (C: Clear) | 4.3* mg/mL | C (C: Clear) | C (C: Clear) | C (C: Clear) | 3.7* mg/mL | improved or comparable solubility | solubility kinetic ([1]; water): > 3500 µg/mL
6 | CCOCc1nc2c(N)nc3ccccc3c2n1CC(C)(C)O [Di-HCl salt Type A, resiquimod] | C (C: Clear) | C (C: Clear) | C (C: Clear) | 3.9* mg/mL | C (C: Clear) | C (C: Clear) | C (C: Clear) | C (C: Clear) | 3.9* mg/mL |  |  |  |  | improved or comparable solubility | S: Solubility ([1]; FeSSIF, RT, 2 hrs): C (C: Clear); S: Solubility ([1]; FeSSIF, RT, 4 hrs): C (C: Clear); S: Solubility ([1]; FeSSIF, RT, 24 hrs): 3.9* mg/mL
7 | CCOCc1nc2c(N)nc3ccccc3c2n1CC(C)(C)O [Mono-HCl salt Type A, resiquimod] |  |  |  |  | C (C: Clear) | C (C: Clear) | C (C: Clear) | C (C: Clear) | 4.7* mg/mL |  |  |  |  | improved or comparable solubility | solubility at 24 h ([1]; FaSSIF, thermodynamic from solid, FaSSIF, RT, 24 hrs, read-out: S: Solubility): 4500 µg/mL; S: Solubility ([1]; FeSSIF, RT, 2 hrs): C (C: Clear); S: Solubility ([1]; FeSSIF, RT, 4 hrs): C (C: Clear); S: Solubility ([1]; FeSSIF, RT, 24 hrs): 4.6* mg/mL; solubility kinetic ([1]; water, summary): > 3800 µg/mL
8 | CCOCc1nc2c(N)nc3ccccc3c2n1CC(C)(C)O [Type C, resiquimod] |  |  |  |  |  |  |  |  |  |  |  |  |  |  | form conversion on drying ([2]; dried at ambient conditions overnight): converted to Type A
9 | CCOCc1nc2c(N)nc3ccccc3c2n1CC(C)(C)O [Adipate Type A, resiquimod] | 4.3 mg/mL | 4.5 mg/mL | 4.6 mg/mL | 4.5* mg/mL |  | 4.7 mg/mL | C (C: Clear) | C (C: Clear) | 4.7* mg/mL | 2.8 mg/mL | 2.7 mg/mL | 2.8 mg/mL | 2.7 mg/mL | improved or comparable solubility | FC: Solid form change ([1]; FaSSIF, RT, 1 hr): No; FC: Solid form change ([1]; Water, RT, 1 hr): No; FC: Solid form change ([1]; Water, RT, 2 hrs): No; FC: Solid form change ([1]; Water, RT, 4 hrs): No; FC: Solid form change ([1]; Water, RT, 24 hrs): No; Kinetic Solubility at RT ([1]; bio-relevant media): >4.2 (bio-relevant mg/mL; Kinetic Solubility at RT ([1]; water): ~2.7 (water) mg/mL
10 | CCOCc1nc2c(N)nc3ccccc3c2n1CC(C)(C)O [sulfate Type A (807919-21-A)] |  |  |  |  |  |  |  |  |  |  |  |  |  |  | solubility ([3]; ACN): < 2200 µg/mL; solubility ([3]; DMAc): > 40000 µg/mL; solubility ([3]; DMSO): > 44000 µg/mL; solubility ([3]; EtOAc): < 2200 µg/mL; solubility ([3]; IPAc): < 2000 µg/mL; solubility ([3]; MEK): < 2000 µg/mL; solubility ([3]; MIBK): < 2100 µg/mL; solubility ([3]; MTBE): < 2300 µg/mL; solubility ([3]; NMP): > 44000 µg/mL; solubility ([3]; anisole): < 2200 µg/mL; solubility ([3]; n-heptane): < 2100 µg/mL; solubility ([3]; toluene): < 2000 µg/mL
